Here are results for 24 molecules from patent US8022072B2, “Azolylmethylidenehydrazine derivative and use thereof” (Kaken Pharmaceutical Co., Ltd., priority 2007, dated 2011).

One assay has as its system OVA-induced dermatitis. The assay is described as follows: Ovalbumin (OVA)-induced dermatitis model, ear edema. The class given is in vivo, male ICR mouse. The following applies: test compound 1 w/v % (FK506 0.1 w/v %), 20 μL applied to auricle, 24 hours after induction. Set-up: key: ratio of compound's ear edema inhibition rate to FK506's (FK506 = 1.0). The method, then: (§1) The test compound was adjusted to 1 w/v % when in use with a solvent (acetone:olive oil=1:1, v/v)) and put to use. FK506 (control substance) was adjusted to 0.1 w/v % and used.
Male ICR mouse was sensitized by the administration of 0.2 mL of OVA-hydroxide aluminum gel suspension to the abdominal cavity. After 14 days from the sensitization, the thickness of the right auricle was measured with a micrometer (pre-value). After the measurement, 20 μL of 0.5 μg/mL OVA challenge liquid (solvent was physiological saline) was subcutaneously administered to the inside of the auricle to induce ear edema. About 5 minutes after the administration of the challenge liquid, 20 μL of the test compound was applied to the outside of the auricle. After 24 hours from the induction of ear edema, the thickness of the right auricle was measured by a method similar to the pre-value (post-value). The difference between the post-value and the pre-value of ear edema by each test compound was determined, based on which the inhibition rate was calculated. The activity of each test compound was calculated with the ear edema inhibition rate of FK506 as 1.0 (ear edema inhibition rate of each test compound/ear edema inhibition rate of FK506).

In the next assay the test system is TNCB-induced dermatitis. The assay is described as follows: 2,4,6-Trinitrochlorobenzene (TNCB)-induced dermatitis model, ear edema. The class given is in vivo, male BALB/c mouse. Conditions: test compound 1 w/v % (FK506 0.1 w/v %), 20 μL applied to auricle, 24 hours after induction. The protocol: as §1
The fur on the abdomen of male BALB/c mouse was shaved with a hair clipper, and 100 μL of 7 w/v % TNCB sensitizing liquid (solvent was acetone:olive oil=4:1, v/v) was applied. Six days after the sensitization, the thickness of the right auricle was measured with a micrometer (pre-value). After the measurement, 10 μL of 1 w/v % TNCB challenge liquid (solvent was acetone:olive oil=1:9, v/v) was applied to the inside of the right auricle to induce ear edema. About 5 minutes after the application of the challenge liquid, 20 μL of the test compound was applied to the outside of the auricle.
After 24 hours from the induction of ear edema, the thickness of the right auricle was measured by a method similar to the pre-value (post-value). The difference between the post-value and the pre-value of ear edema by each test compound was determined, based on which the inhibition rate was calculated. The activity of each test compound was calculated with the ear edema inhibition rate of FK506 as 1.0 (ear edema inhibition rate of each test compound/ear edema inhibition rate of FK506).

Consider `CCCCCCc1ccccc1C(=NN(C)C)n1ccnc1` [Compound No. 5, N′-[1-(2-hexylphenyl)-1-imidazol-1-ylmethylidene]-N,N-dimethylhydrazine], for which the “OVA-induced dermatitis, with ear edema inhibition rate of FK506 as 1.0” value in the assay with OVA-induced dermatitis is on record as 1.2. In addition, the “TNCB-induced dermatitis, with ear edema inhibition rate of FK506 as 1.0” value in the assay with TNCB-induced dermatitis turned out to be 0.6.
On the same counts, the results for `CCCCCOc1ccccc1C(=NN(C)C)n1ccnc1` [Compound No. 24, N′-[1-imidazol-1-yl-1-(2-pentyloxyphenyl)methylidene]-N,N-dimethylhydrazine] are 0.9 and 0.5.
Consider `CN(C)N=C(c1ccccc1OCc1ccc(F)cc1)n1ccnc1` [Compound No. 35, N′-[1-[2-(4-fluorobenzyloxy)phenyl]-1-imidazol-1-ylmethylidene]-N,N-dimethylhydrazine], for which, in the assay with OVA-induced dermatitis, the “OVA-induced dermatitis, with ear edema inhibition rate of FK506 as 1.0” value amounted to 0.9. Moreover, the “TNCB-induced dermatitis, with ear edema inhibition rate of FK506 as 1.0” value in the assay with TNCB-induced dermatitis amounted to 0.6.
For `CN(C)N=C(c1ccccc1OCc1ccc(Cl)cc1)n1ccnc1` [Compound No. 38, N′-[1-[2-(4-chlorobenzyloxy)phenyl]-1-imidazol-1-ylmethylidene]-N,N-dimethylhydrazine] the same measures were 1.1 and 0.7.
Turning to `CN(C)N=C(c1ccccc1OCc1cccc(Cl)c1)n1ccnc1` [Compound No. 40, N′-[1-[2-(3-chlorobenzyloxy)phenyl]-1-imidazol-1-ylmethylidene]-N,N-dimethylhydrazine], the “OVA-induced dermatitis, with ear edema inhibition rate of FK506 as 1.0” value in the assay on OVA-induced dermatitis is listed as 1.0. Also, in the assay on TNCB-induced dermatitis, the “TNCB-induced dermatitis, with ear edema inhibition rate of FK506 as 1.0” value amounted to 0.7.
On the same counts, the results for `CCc1ccc(COc2ccccc2C(=NN(C)C)n2ccnc2)cc1` [Compound No. 48, N′-[1-[2-(4-ethylbenzyloxy)phenyl]-1-imidazol-1-ylmethylidene]-N,N-dimethylhydrazine] are 1.0 and 0.5.
For `CN(C)N=C(c1ccccc1OCCc1ccccc1)n1ccnc1` [Compound No. 56, N′-[1-imidazol-1-yl-1-(2-phenethoxyphenyl)methylidene]-N,N-dimethylhydrazine] the same measures were 1.2 and 0.7.
For `CN(C)N=C(c1ccccc1OCCc1ccc(F)cc1)n1ccnc1` [Compound No. 57, N′-[1-[2-[2-(4-fluorophenyl)ethoxy]phenyl]-1-imidazol-1-ylmethylidene]-N,N-dimethylhydrazine] the same measures were 1.8 and 0.8.
In the case of `COc1ccc(CCOc2ccccc2C(=NN(C)C)n2ccnc2)cc1` [Compound No. 58, N′-[1-imidazol-1-yl-1-[2-[2-(4-methoxyphenyl)ethoxy]phenyl]methylidene]-N,N-dimethylhydrazine], the “OVA-induced dermatitis, with ear edema inhibition rate of FK506 as 1.0” value in the assay on OVA-induced dermatitis is reported as 1.0. The “TNCB-induced dermatitis, with ear edema inhibition rate of FK506 as 1.0” value in the assay with TNCB-induced dermatitis was 0.9.
On the same counts, the results for `CN(C)N=C(c1ccccc1OCC1COc2ccccc2O1)n1ccnc1` (stereo not drawn) [Compound No. 73, N′-[1-[2-(2,3-dihydrobenzo[1,4]dioxin-2-ylmethoxy)phenyl]-1-imidazol-1-ylmethylidene]-N,N-dimethylhydrazine] are 1.1 and 0.7.
For `CN(C)N=C(c1ccccc1SCCc1ccccc1)n1ccnc1` [Compound No. 84, N′-[1-imidazol-1-yl-1-(2-phenethylthiophenyl)methylidene]-N,N-dimethylhydrazine] the same measures were 1.4 and 0.9.
On the same counts, the results for `CN(C)N=C(c1cccn1CCCOc1ccccc1)n1ccnc1` [Compound No. 108, N′-[1-imidazol-1-yl-1-[1-(3-phenoxypropyl)pyrrol-2-yl]methylidene]-N,N-dimethylhydrazine] are 1.4 and 0.9.
As to `CCN(C)N=C(c1ccccc1OCc1ccc(F)cc1)n1ccnc1` [Compound No. 113, N-ethyl-N′-[1-[2-(4-fluorobenzyloxy)phenyl]-1-imidazol-1-ylmethylidene]-N-methylhydrazine], the “OVA-induced dermatitis, with ear edema inhibition rate of FK506 as 1.0” value with OVA-induced dermatitis turned out to be 1.7. In addition, in the assay with TNCB-induced dermatitis, the “TNCB-induced dermatitis, with ear edema inhibition rate of FK506 as 1.0” value is listed as 0.6.
For `CCN(C)N=C(c1ccccc1OCCCOc1ccccc1)n1ccnc1` [Compound No. 115, N-ethyl-N′-[1-imidazol-1-yl-1-[2-(3-phenoxypropoxy)phenyl]methylidene]-N-methylhydrazine] the same measures were 1.4 and 0.7.
On the same counts, the results for `CCN(C)N=C(c1ccccc1OCCCCOc1ccccc1)n1ccnc1` [Compound No. 116, N-ethyl-N′-[1-imidazol-1-yl-1-[2-(4-phenoxybutoxy)phenyl]methylidene]-N-methylhydrazine] are 1.1 and 0.7.
For `CCN(CC)N=C(c1ccccc1OCCOc1ccccc1)n1ccnc1` [Compound No. 119, N,N-diethyl-N′-[1-imidazol-1-yl-1-[2-(2-phenoxyethoxy)phenyl]methylidene]hydrazine] the same measures were 1.1 and 0.9.
For `c1ccc(OCCOc2ccccc2C(=NN2CCCCC2)n2ccnc2)cc1` [Compound No. 175, [1-imidazol-1-yl-1-[2-(2-phenoxyethoxy)phenyl]methylidene]piperidin-1-ylamine], the “OVA-induced dermatitis, with ear edema inhibition rate of FK506 as 1.0” value in the assay with OVA-induced dermatitis turned out to be 1.4. Further, the “TNCB-induced dermatitis, with ear edema inhibition rate of FK506 as 1.0” value with TNCB-induced dermatitis turned out to be 0.6.
Turning to `CCOc1ccccc1C(=NN1CCCCCC1)n1ccnc1` [Compound No. 197, [1-(2-ethoxyphenyl)-1-imidazol-1-ylmethylidene]homopiperidin-1-ylamine], the “OVA-induced dermatitis, with ear edema inhibition rate of FK506 as 1.0” value with OVA-induced dermatitis worked out at 1.1. In addition, in the assay with TNCB-induced dermatitis, the “TNCB-induced dermatitis, with ear edema inhibition rate of FK506 as 1.0” value is listed as 0.7.
On to `CCCCOc1ccccc1C(=NN1CCCCCC1)n1ccnc1` [Compound No. 202, [1-(2-butoxyphenyl)-1-imidazol-1-ylmethylidene]homopiperidin-1-ylamine], for which the “OVA-induced dermatitis, with ear edema inhibition rate of FK506 as 1.0” value in the assay on OVA-induced dermatitis is reported as 1.0. For the same molecule, the “TNCB-induced dermatitis, with ear edema inhibition rate of FK506 as 1.0” value in the assay on TNCB-induced dermatitis worked out at 0.7.
For `CCCCCOc1ccccc1C(=NN1CCCCCC1)n1ccnc1` [Compound No. 203, homopiperidin-1-yl-[1-imidazol-1-yl-1-(2-pentyloxyphenyl)methylidene]amine] the same measures were 1.0 and 0.9.
Take `c1ccc(OCCOc2ccccc2C(=NN2CCCCCC2)n2ccnc2)cc1` [Compound No. 215, homopiperidin-1-yl-[1-imidazol-1-yl-1-[2-(2-phenoxyethoxy)phenyl]methylidene]amine]: in the assay on OVA-induced dermatitis, the “OVA-induced dermatitis, with ear edema inhibition rate of FK506 as 1.0” value is listed as 1.2. Besides, the “TNCB-induced dermatitis, with ear edema inhibition rate of FK506 as 1.0” value with TNCB-induced dermatitis turned out to be 0.8.
Consider `c1ccc(OCCCOc2ccccc2C(=NN2CCCCCC2)n2ccnc2)cc1` [Compound No. 216, homopiperidin-1-yl-[1-imidazol-1-yl-1-[2-(3-phenoxypropoxy)phenyl]methylidene]amine], for which the “OVA-induced dermatitis, with ear edema inhibition rate of FK506 as 1.0” value with OVA-induced dermatitis amounted to 1.5. Besides, the “TNCB-induced dermatitis, with ear edema inhibition rate of FK506 as 1.0” value with TNCB-induced dermatitis came to 0.5.
On the same counts, the results for `FC(F)(F)Oc1ccccc1C(=NN1CCCCCC1)n1ccnc1` [Compound No. 219, homopiperidin-1-yl-[1-imidazol-1-yl-1-(2-trifluoromethoxyphenyl)methylidene]amine] are 1.1 and 0.6.
On the same counts, the results for `CCSc1ccccc1C(=NN1CCCCCC1)n1ccnc1` [Compound No. 220, [1-(2-ethylthiophenyl)-1-imidazol-1-ylmethylidene]homopiperidin-1-ylamine] are 1.1 and 0.5.
